The text below walks through data of patent US7456133B2, “Substituted arylketones” (Bayer CropScience AG, priority 2001, dated 2008).

The subject of data set [1] is weeds. Kind of data set: Pre-emergence test, damage to weeds. In kind it is in vivo. To be noted: soil sprayed 24 hours after sowing, rated after three weeks. How it is done:
Solvent: 5 parts by weight of acetone
(§1) Emulsifier: 1 part by weight of alkylaryl polyglycol ether
(§2) To produce a suitable preparation of active compound, 1 part by weight of active compound is mixed with the stated amount of solvent, the stated amount of emulsifier is added and the concentrate is diluted with water to the desired concentration.
Seeds of the test plants are sown in normal soil. After 24 hours, the soil is sprayed with the preparation of active compound such that the particular amount of active compound desired is applied per unit area. The concentration of active compound in the spray liquor is chosen such that the particular amount of active compound desired is applied in 1000 litres of water per hectare.
(§3) After three weeks, the degree of damage to the plants is rated in % damage in comparison to the development of the untreated control. The figures denote: • 0%=no effect (like untreated control) • 100%=total destruction

Data set [2] can be described thus: Log P by reversed-phase HPLC (C 18), acidic range. The data set is classed as physicochemical. The note with it: for chromatographic logP: reversed-phase HPLC column (C 18), given in the preparation examples, acidic or neutral range not given; for log P: reversed-phase HPLC (C 18), acidic range: 0.1% aqueous phosphoric acid, acetonitrile; 43° C.; labelled a). How it is done: Log P values given in the tables were determined in accordance with EEC Directive 79/831 Annex V.A8 by HPLC (High Performance Liquid Chromatography) using a reversed-phase column (C 18). Temperature: 43° C. (a) Mobile phases for the determination in the acidic range: 0.1% aqueous phosphoric acid, acetonitrile; linear gradient from 10% acetonitrile to 90% acetonitrile—the corresponding measurement results in Tables 1 and 2 are labelled^a).

In data set [3] the test system is weeds. Briefly: Post-emergence test, damage to weeds. The data set is classed as in vivo. The note with it: test plants of 5-15 cm sprayed, rated after three weeks. How it is done:
Solvent: 5 part by weight of acetone
as §1, §2
Test plants of a height of 5-15 cm are sprayed with the preparation of active compound such that the particular amounts of active compound desired are applied per unit area. The concentration of the spray liquor is chosen such that the particular amounts of active compound desired are applied in 1000 l of water/ha.
as §3

Usually chromatographic logP stands for lipophilicity estimated from chromatographic retention.

Consider `CCn1ncc(C(=O)c2ccc(Cl)c(OCCNC(C)=O)c2Cl)c1O` [Example I-2-1, N-(2-{2,6-dichloro-3-[(1-ethyl-5-hydroxy-1H-pyrazol-4-yl)-carbonyl]-phenoxy}-ethyl)-acetamide], for which the activity against weeds entry in data set [1] and in data set [3] was “strong activity” in each case. The chromatographic logP in data set [2] came out at 1.41. Turning to `CC(C)NC(=S)NCc1c(Cl)ccc(C(=O)C2=C(O)CCCC2=O)c1Cl` [Example I-2-3], the activity against weeds result in data set [1] and in data set [3] was “strong activity” each time. For the same compound, the chromatographic logP in data set [2] was found to be 2.74. The compound `CCn1ncc(C(=O)c2ccc(Cl)c(OCCNC(C)=O)c2Cl)c1OCc1ccc(Br)cc1` [Example I-2-4, N-{2-[3-({5-[(4-bromo-benzyl)-oxy]-1-ethyl-1H-pyrazol-4-yl}-carbonyl)-2,6-dichloro-phenoxy]-ethyl}-acetamide] came in with a chromatographic logP in data set [2] of 2.06. Besides, the activity against weeds result in data set [3] is “strong activity”. On to `CCOC(=O)N(Cc1ccc(C(=O)C2C(=O)CCCC2=O)c([N+](=O)[O-])c1)C(C)C` [Example I-3-41], for which the “log P” value in data set [2] is listed as “log P = 3.04^a)”.

In the case of `CCOC(=O)N(Cc1ccc(C(=O)c2cnn(C)c2O)c([N+](=O)[O-])c1)C(C)C` [Example I-3-42], the “log P” value in data set [2] is “log P = 2.06^a)”. In data set [2], `CCn1ncc(C(=O)c2ccc(Cl)c(OCCN)c2Cl)c1O` [II-1, [3-(2-amino-ethoxy)-2,4-dichloro-phenyl]-(1-ethyl-5-hydroxy-1H-pyrazol-4-yl)-methanone] returned a chromatographic logP of 0.72. On the same count and under the same terms, the result for `CCn1ncc(C(=O)c2ccc(Cl)c(OCCCl)c2Cl)c1O` [[2,4-dichloro-3-(2-chloro-ethoxy)-phenyl]-(1-ethyl-5-hydroxy-1H-pyrazol-4-yl)-methanone] reads 2.73; that for `CCOC(=O)c1ccc(Cl)c(OCCCl)c1Cl` [ethyl 2,4-dichloro-3-(2-chloro-ethoxy)-benzoate], 3.76.
